The test system of one assay is T1, total LRRK2.
T1 construct: human primary cells expressing endogenous levels of LRRK2; endogenous in cells; host or cells: human PBMCs from healthy donors
Kind of assay: Western Blot, cultured immune stimulated human PBMCs. It counts as cell-based. The following applies: 100 nM; 24hr; PMA/INF-γ stimulated PBMCs, 3 DIV. Background: Immunoblotting shows a protein as a band on a membrane.

In the next assay the test system is T2, MST4.
T2 construct: purchased ActivX Technologies (KiNativ)
Put plainly: KiNativ profiling in human PBMCs. The assay is classed as binding. The following applies: Lys1.

The subject of the next assay is T3, CLK3.
T3 construct: purchased ActivX Technologies (KiNativ)
Kind of assay: KiNativ profiling in human PBMCs. It counts as binding. The following applies: ATP Loop.

Another assay relates to PKD1, PKD2. Put plainly: KiNativ profiling in human PBMCs. The assay is classed as binding. As to conditions: Lys2.
In a further assay the test system is T4, NEK3.
T4 construct: purchased ActivX Technologies (KiNativ)
Put plainly: KiNativ profiling in human PBMCs. The assay is classed as binding. As to conditions: Activation Loop.

For a further assay, the system named is CHED. The following applies: Lys2.
The next assay has as its system T5, PKCd.
T5 construct: purchased ActivX Technologies (KiNativ)
Kind of assay: KiNativ profiling in human PBMCs. The assay is classed as binding. As to conditions: Lys2.

A further assay has as its system T6, VRK2.
T6 construct: purchased ActivX Technologies (KiNativ)
Kind of assay: KiNativ profiling in human PBMCs. The assay is classed as binding. The following applies: Lys2.

Another assay relates to PCTAIRE2, PCTAIRE3. Put plainly: KiNativ profiling in human PBMCs. The following applies: Lys1. The assay is classed as binding.
Another assay concerns T7, ITK.
T7 construct: purchased ActivX Technologies (KiNativ)
Put plainly: KiNativ profiling in human PBMCs. The assay is classed as binding. The following applies: Activation Loop.

A further assay relates to T8, PKD3.
T8 construct: purchased ActivX Technologies (KiNativ)
Put plainly: KiNativ profiling in human PBMCs. The assay is classed as binding.

In another assay the test system is T9, EphA1.
T9 construct: purchased ActivX Technologies (KiNativ)
Put plainly: KiNativ profiling in human PBMCs. As to conditions: Activation Loop. It counts as binding.

The test system of a further assay is T10, p70S6Kb.
T10 construct: purchased ActivX Technologies (KiNativ)
Kind of assay: KiNativ profiling in human PBMCs. It counts as binding. As to conditions: Lys2.

The subject of another assay is T11, PKN2.
T11 construct: purchased ActivX Technologies (KiNativ)
Kind of assay: KiNativ profiling in human PBMCs. It counts as binding. As to conditions: Lys2.

Another assay deals with T12, ZC2/TNIK.
T12 construct: purchased ActivX Technologies (KiNativ)
Kind of assay: KiNativ profiling in human PBMCs. The assay is classed as binding. As to conditions: Lys1.

In the next assay the test system is T13, PKCh.
T13 construct: purchased ActivX Technologies (KiNativ)
Put plainly: KiNativ profiling in human PBMCs. The following applies: Lys1. The assay is classed as binding.

The subject of another assay is T14, MARK4.
T14 construct: purchased ActivX Technologies (KiNativ)
Kind of assay: KiNativ profiling in human PBMCs. The assay is classed as binding. As to conditions: Lys2.

The next assay concerns T15, MPSK1.
T15 construct: purchased ActivX Technologies (KiNativ)
Kind of assay: KiNativ profiling in human PBMCs. It counts as binding. The following applies: Lys1.

The next assay relates to T16, MAP3K3.
T16 construct: purchased ActivX Technologies (KiNativ)
Put plainly: KiNativ profiling in human PBMCs. It counts as binding. The following applies: Lys1.

A further assay has as its system T17, SRC.
T17 construct: purchased ActivX Technologies (KiNativ)
Put plainly: KiNativ profiling in human PBMCs. It counts as binding. As to conditions: Lys1.

The test system of another assay is T18, ITPK1.
T18 construct: purchased ActivX Technologies (KiNativ)
Kind of assay: KiNativ profiling in human PBMCs. It counts as binding. As to conditions: ATP.

The subject of the next assay is T19, MAST4.
T19 construct: purchased ActivX Technologies (KiNativ)
Put plainly: KiNativ profiling in human PBMCs. It counts as binding. The following applies: Lys2.

The values below come from publication PMC5578959, “Selective LRRK2 kinase inhibition reduces phosphorylation of endogenous Rab10 and Rab12 in human peripheral mononuclear blood cells” (Scientific Reports, 2017).

Read-outs that look alike come from different tables or passages of the source.

For the compound `Cc1cccc(-c2cc(Nc3ccn(C)n3)nc3[nH]cc(C#N)c23)c1` [Lu AF58786], in the assay on total LRRK2, the “total LRRK2 protein levels” value is on record as “significantly lowers”.
The % Inhibition is the change of the read-out against control, counted positive when it falls. For `Cn1cc(-c2c[nH]c3ncnc(N4CCOCC4)c23)cc1C#N` [PFE-360], the “% Inhibition” value is on record as -26.3% in the assay on MST4 (0.1µM); -30% in the assay on MST4 (1µM); 3.8% in the assay on CLK3 (0.1µM); -6.8% in the assay with CLK3 (1µM); 13.1% in the assay on PKD1, PKD2 (0.1µM); -5.9% in the assay on PKD1, PKD2 (1µM). In addition, the “% Inhibition” value with NEK3 (0.1µM) is -10.8%; in the assay with NEK3 (1µM), 1.2%; in the assay on CHED (0.1µM), 4.9%; with CHED (1µM) it was -1.5%; with PKCd (0.1µM), 3.5%; with PKCd (1µM) it was -0.6%. In addition, the “% Inhibition” value with VRK2 (0.1µM) is reported as -2.9%; in the assay on VRK2 (1µM) it was 8.4%; in the assay with PCTAIRE2, PCTAIRE3 (0.1µM), -34%; in the assay with PCTAIRE2, PCTAIRE3 (1µM), 11.6%; in the assay on ITK (0.1µM) it was 3.5%; in the assay on ITK (1µM), -4.7%. Besides, the “% Inhibition” value is 1.2% in the assay on PKD3 (0.1µM, Lys1); 17.6% in the assay with PKD3 (0.1µM, Lys2); -10.7% in the assay on PKD3 (1µM, Lys1); -1.1% with PKD3 (1µM, Lys2); -12.8% in the assay on EphA1 (0.1µM); -26.9% in the assay on EphA1 (1µM). In addition, the “% Inhibition” value in the assay on p70S6Kb (0.1µM) is -6.9%; with p70S6Kb (1µM), 10.8%; in the assay with PKN2 (0.1µM), -3%; in the assay with PKN2 (1µM), -20%; with ZC2/TNIK (0.1µM), -31.6%; in the assay on ZC2/TNIK (1µM) it was 12.3%. Further, the “% Inhibition” value is -10.3% in the assay with PKCh (0.1µM); -11% with PKCh (1µM); 14.8% in the assay with MARK4 (0.1µM); -6.1% in the assay on MARK4 (1µM); 5.5% in the assay with MPSK1 (0.1µM); -27.6% with MPSK1 (1µM). Moreover, the “% Inhibition” value is recorded as 18.3% in the assay with MAP3K3 (0.1µM); 16.1% with MAP3K3 (1µM); -31.8% with SRC (0.1µM); -0.3% in the assay with SRC (1µM); -34% in the assay on ITPK1 (0.1µM); -34.7% with ITPK1 (1µM). The entries for the “% Inhibition” value in the assay on MAST4 (0.1µM) and in the assay with MAST4 (1µM) were -5.7% and -21.4%, respectively.
